Laboratory results reported in the NIST ThermoML archive (doi:10.1021/je060271a).

Conditions: 303.16 K, Liquid, Vibrating tube method

CCCC(=O)OCC(COC(=O)CCC)(COC(=O)CCC)COC(=O)CCC [pentaerythritol tetrabutyrate]
Conditions	mass density [kg/m3]
28457 kPa	1059.5
28504 kPa	1059.6
28542 kPa	1059.7
28589 kPa	1059.8
28636 kPa	1059.7
28675 kPa	1059.8
28723 kPa	1059.9
28762 kPa	1059.7
28808 kPa	1059.8
28856 kPa	1059.8
28896 kPa	1060
28944 kPa	1059.8
28991 kPa	1060
29031 kPa	1060
29080 kPa	1060
29121 kPa	1060
29170 kPa	1060.1
29212 kPa	1060
29261 kPa	1060.1
29301 kPa	1060
29349 kPa	1060
29397 kPa	1060.1
29435 kPa	1060
29481 kPa	1060.1
29515 kPa	1060.2
29583 kPa	1060.3
29644 kPa	1060.2
29675 kPa	1060.3
29772 kPa	1060.4
29848 kPa	1060.4
29885 kPa	1060.5
29968 kPa	1060.4
30045 kPa	1060.6
30080 kPa	1060.5
30163 kPa	1060.5
30239 kPa	1060.6
30274 kPa	1060.8
30309 kPa	1060.5
30339 kPa	1060.8
30375 kPa	1060.8
30405 kPa	1060.6
30441 kPa	1060.8
30478 kPa	1060.7
30509 kPa	1060.8
30539 kPa	1060.8
30576 kPa	1060.9
30606 kPa	1060.9
30642 kPa	1060.7
30679 kPa	1060.9
30710 kPa	1060.8
30746 kPa	1060.9
30777 kPa	1061.1
30814 kPa	1061
30850 kPa	1060.9
30882 kPa	1061
30919 kPa	1061
30951 kPa	1061
30989 kPa	1061.1
31020 kPa	1061
31057 kPa	1061.1
31094 kPa	1061.3
31126 kPa	1061.1
31164 kPa	1061.1
31196 kPa	1061.1
31233 kPa	1061.1
31271 kPa	1061.2
31303 kPa	1061.3
31342 kPa	1061.2
31375 kPa	1061.3
31414 kPa	1061.3
31446 kPa	1061.3
31485 kPa	1061.2
31517 kPa	1061.2
31555 kPa	1061.3
31595 kPa	1061.4
31627 kPa	1061.4
31667 kPa	1061.4
31700 kPa	1061.5
31738 kPa	1061.4
31778 kPa	1061.5
31811 kPa	1061.5
31851 kPa	1061.5
31883 kPa	1061.5
31922 kPa	1061.6
31960 kPa	1061.6
31999 kPa	1061.6
32038 kPa	1061.6
32076 kPa	1061.5
32115 kPa	1061.7
32148 kPa	1061.9
32187 kPa	1061.8
32227 kPa	1061.7
32266 kPa	1061.9
32299 kPa	1061.7
32339 kPa	1061.8
32380 kPa	1061.8
32419 kPa	1061.8
32452 kPa	1061.8
32491 kPa	1062
32532 kPa	1061.9
32572 kPa	1061.8
32612 kPa	1061.9
32652 kPa	1062
32693 kPa	1061.8
32727 kPa	1062
32768 kPa	1062
32809 kPa	1062.1
32850 kPa	1062
32891 kPa	1062.2
33091 kPa	1062.2
33133 kPa	1062.2
33168 kPa	1062.2
33210 kPa	1062.2
33253 kPa	1062.4
33296 kPa	1062.3
33340 kPa	1062.3
33377 kPa	1062.2
33421 kPa	1062.4
33456 kPa	1062.4
33499 kPa	1062.4
33542 kPa	1062.4
33586 kPa	1062.6
33622 kPa	1062.5
33666 kPa	1062.6
33710 kPa	1062.5
33753 kPa	1062.5
33797 kPa	1062.6
33834 kPa	1062.6
33881 kPa	1062.7
33925 kPa	1062.7
33963 kPa	1062.8
34008 kPa	1062.7
34052 kPa	1062.7
34098 kPa	1062.8
34136 kPa	1062.8
34182 kPa	1062.8
34228 kPa	1062.7
34275 kPa	1062.9
34322 kPa	1062.9
34370 kPa	1063
34411 kPa	1063.1
34462 kPa	1063
34514 kPa	1063.1
34558 kPa	1062.9
34613 kPa	1063
34844 kPa	1063.3
